Test results as given in patent US11129782B2, “Derivatives of PPD useful for coloring hair and skin” (National University of Singapore, priority 2017, dated 2021).

Assays:
[1] = Skin permeation in vertical Franz diffusion cells; type: in vitro ADME, porcine
In short: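 Dermatomed porcine ear skin (~1.0 mm, barrier checked by TEWL) in vertical Franz cells at 37 °C, 0.64 cm^2 area, PBS receptor, donor of 1% w/v solutions in argon-purged water (n=3). Receptor sampled over 8 h with mass balance, LCMS quantification; flux and permeability coefficients from steady-state Fick's law fits.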

[2] = Oxidation stability of 1% PPD patch test formulation in paraffin (mass spectrometry); type: physicochemical; settings: several days in air
Source text: (§1) This is true even after 2 days of patch test as the test field remains colourless.

sensitized patients = assay: Patch test with 1% PPD formulation in paraffin; type: in vivo, human; settings: 1% PPD patch test formulation in paraffin
Source text: as §1
Thus there remains a need for hair and temporary skin colourings that avoid such allergic responses and may be suitable for use in subjects who show sensitivity to conventional colouring materials.

HaCaT cells = assay: In vitro cell cytotoxicity (MTT) assay on HaCaT cells; type: cell-based, human; settings: Homo sapiens, HaCaT; 72 h incubation; MTT
In short: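 HaCaT keratinocytes seeded at 5×10^3/well, after 24 h exposed 72 h to test compounds serially diluted from 500 μM to 1.9 μM in 10% FBS DMEM. MTT (1 mg/ml, 4 h) read at 570 nm; viability expressed as percent of untreated control.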

IL-8 = IL-8 ELISA on THP-1 cell supernatants; type: cell-based, human; settings: preliminary ELISA, CV75
[3] = test system: cysteine and lysine peptides; assay: Direct Peptide Reactivity Assay, mean of cysteine and lysine depletion (FIG. 12)
Description: Direct reactivity of test chemical to lysine-based synthetic peptide was determined in reactions containing 100 mM ammonium acetate buffer (pH 10.2). The final concentration of lysine peptide was 20 μM in a final reaction volume of 0.3 ml. Direct reactivity of test chemicals to cysteine-based synthetic peptide was determined in 100 mM Sodium Phosphate buffer of pH 7.5.
For the DPRA, incubation mixtures were prepared using each peptide to test compound ratios of both 1:10 for cysteine peptide and 1:50 for lysine peptide, according to Table 19. […] Sample reactions were initiated by adding 3 μl of a test chemical stock solution for cysteine and 15 μl stock solution for lysine peptide. These mixtures were then placed in a temperature-controlled shaking incubator at 25° C.
At each time point (20 mins/24 hours), the incubation mixtures were quenched with 75 μL of 95% ACN/H2O, and mildly vortexed (600 rpm, 3 seconds). For Lysine DPRA experiment, 10 μl of aliquot was diluted with 2% ACN/H2O, vortexed and stored at −80° C. until analysis by LC-MS/MS. For cysteine DPRA, an additional step was performed. 10 μl of cysteine reaction mixture, at time points 20 min and 24 h were diluted in 180 μl of 2% ACN/H2O. To which, a 10 μl aliquot of a 16 mM dithiothreitol solution (prepared in water) was then added, and samples were heated in a 45° C. oven for 30 min, then allowed to cool to room temperature prior to analysis. The peptide depletion (PD) percentage was obtained using this equation.

Which “% Parent compound Penetrated (mean)” value ([1]; 1% W/V applied, 8 h) does the source give for `Nc1ccc(N)cc1` [PPD, para-phenylenediamine, reference compound] here?
The value was 0.162%.

And the “% converted to metabolite (mean)” value ([1]; 1% W/V applied, 8 h)?
Its value is 3.17%.

What about the “Mass balance in the Franz cells” value ([1]; 8 h) of the same molecule?
The value was greater than 99%.

And the “Jss · 10^4 (steady state flux)” value ([1]; mean)?
The value was 4.3 mg cm^−2 h^−1.

What about the “tlag (lag time)” value ([1]; mean) of the same molecule?
Its value is 4.2 h.

What about the recovery at 8 h, 1 % w/v ([1]; pig, 1% W/V applied, 8 h, read-out: % Parent compound Recovery (mean)) of the same molecule?
Its recovery at 8 h, 1 % w/v is 90.3%.

What about the Papp at 8 h, 1 % w/v ([1]; pig, mean, read-out: kp · 10^5 (steady state permeability coefficient) (converted)) of the same molecule?
The Papp at 8 h, 1 % w/v was 1190 ×10⁻⁶ cm/s.

What about the “Dm · 10^4 (diffusion coefficient in skin)” value ([1]; steady state, mean) of the same molecule?
Its value is 5.00 cm^−2 h^−1.

And the “Ks/d (skin-donor partition coefficient)” value ([1]; steady state, mean, 1% w/v in water, 8 h)?
The value was 0.010.

And the “Oxidation stability in paraffin” value [2]?
The value was “protected against oxidation”.

And the “Skin reaction of sensitized patients” value (sensitized patients)?
The value was “clear localised contact dermatitis”.

What about the IC50 (HaCaT cells) of the same molecule?
Its IC50 is 23.5 µM.

What about the IL-8 expression (IL-8) of the same molecule?
The IL-8 expression was “increased expression”.

What about the “Sensitizing potential predicted from mean peptide depletion” value ([3]; cysteine 1:10 / lysine 1:50 model) of the same molecule?
Its value is “strong sensitizer”.

What about the Mean peptide depletion ([3]; mean of cysteine (1:10) and lysine (1:50), FIG. 12) of the same molecule?
The Mean peptide depletion was 55.5%.
